Legend:
[1] = biological target: T1, Voltage-gated inwardly rectifying potassium channel KCNH2 (Homo sapiens, UniProt Q12809); test: Inhibition of human ERG
[2] = biological target: T1, Voltage-gated inwardly rectifying potassium channel KCNH2; test: Displacement of [3H]dofetilide from human ERG
[3] = Dissociation constant, pKa of the compound; assay type: physicochemical
[4] = biological target: C-C chemokine receptor type 5 (Homo sapiens, UniProt P51681); test: Displacement of [125I]MIP-1beta from CCR5 receptor
Sequence of C-C chemokine receptor type 5 (P51681 whole entry): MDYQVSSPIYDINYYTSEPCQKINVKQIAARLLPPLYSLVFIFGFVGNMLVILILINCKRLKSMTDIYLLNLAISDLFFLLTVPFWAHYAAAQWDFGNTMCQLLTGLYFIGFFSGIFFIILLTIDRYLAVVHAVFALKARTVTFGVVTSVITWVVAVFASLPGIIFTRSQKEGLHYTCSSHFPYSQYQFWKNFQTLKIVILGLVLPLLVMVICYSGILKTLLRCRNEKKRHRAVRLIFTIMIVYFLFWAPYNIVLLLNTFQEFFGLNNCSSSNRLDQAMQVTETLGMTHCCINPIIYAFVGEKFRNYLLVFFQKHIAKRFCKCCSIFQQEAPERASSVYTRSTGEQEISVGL

[5] = system: Human immunodeficiency virus 1; test: Antiviral activity against HIV1 BaL infected in peripheral blood lymphocytes assessed as inhibition of viral replication; assay type: functional; conditions: Human immunodeficiency virus 1, BaL
[6] = system: Human immunodeficiency virus 1; test: Antiviral activity against CCR5-tropic HIV1 clade B infected in peripheral blood lymphocytes assessed as inhibition of viral replication; assay type: functional, organism-based; conditions: Human immunodeficiency virus 1, clade B
[7] = system: Human immunodeficiency virus 1; test: Antiviral activity against CCR5-tropic HIV1 clade A infected in peripheral blood lymphocytes assessed as inhibition of viral replication; assay type: functional, organism-based; conditions: Human immunodeficiency virus 1, clade A
hERG (KCNH2) = hERG (KCNH2) (Homo sapiens, UniProt Q12809); test: Inhibition of human ERG at 1 uM
Sequence of hERG (KCNH2) (Q12809 whole entry): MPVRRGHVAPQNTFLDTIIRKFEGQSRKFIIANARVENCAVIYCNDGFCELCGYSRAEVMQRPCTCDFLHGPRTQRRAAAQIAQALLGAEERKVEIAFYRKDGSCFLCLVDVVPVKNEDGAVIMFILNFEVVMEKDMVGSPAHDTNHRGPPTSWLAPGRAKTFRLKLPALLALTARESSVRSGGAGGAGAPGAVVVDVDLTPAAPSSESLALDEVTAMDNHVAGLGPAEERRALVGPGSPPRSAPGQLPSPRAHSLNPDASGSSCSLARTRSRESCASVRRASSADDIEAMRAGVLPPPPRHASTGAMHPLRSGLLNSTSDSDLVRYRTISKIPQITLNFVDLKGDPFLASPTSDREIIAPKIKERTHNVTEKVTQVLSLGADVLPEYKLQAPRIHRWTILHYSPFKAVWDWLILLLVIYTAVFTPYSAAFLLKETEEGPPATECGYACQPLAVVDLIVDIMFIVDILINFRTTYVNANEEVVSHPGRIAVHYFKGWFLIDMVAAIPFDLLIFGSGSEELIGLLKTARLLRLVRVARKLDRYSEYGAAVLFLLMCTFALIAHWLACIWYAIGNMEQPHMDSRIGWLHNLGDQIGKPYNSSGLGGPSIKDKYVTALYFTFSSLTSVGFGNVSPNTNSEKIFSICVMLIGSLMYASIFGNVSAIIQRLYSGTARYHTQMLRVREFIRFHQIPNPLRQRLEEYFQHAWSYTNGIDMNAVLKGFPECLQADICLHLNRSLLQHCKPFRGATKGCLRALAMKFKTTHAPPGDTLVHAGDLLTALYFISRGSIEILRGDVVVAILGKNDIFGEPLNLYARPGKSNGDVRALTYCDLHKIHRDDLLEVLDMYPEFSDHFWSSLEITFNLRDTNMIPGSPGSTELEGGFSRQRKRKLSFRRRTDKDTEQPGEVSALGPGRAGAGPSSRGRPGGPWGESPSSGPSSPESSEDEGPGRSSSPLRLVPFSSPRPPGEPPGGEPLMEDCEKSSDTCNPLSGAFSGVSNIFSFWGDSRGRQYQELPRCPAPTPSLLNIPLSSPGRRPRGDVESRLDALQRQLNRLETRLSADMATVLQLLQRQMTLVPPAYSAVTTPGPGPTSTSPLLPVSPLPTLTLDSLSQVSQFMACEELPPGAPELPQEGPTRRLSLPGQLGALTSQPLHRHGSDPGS

T1 sequence (Q12809 whole entry): as above

Row | Structure (SMILES) | IC50 [4] | IC90 [5] | inhibition (INH) [1] | Ki [2] | pKa [3] | IC50 [6] | IC50 [7] | inhibition at 1 µM (hERG (KCNH2))
1 | Cc1nc2ccccc2n1[C@@H]1C[C@H]2COC[C@@H](C1)N2CC[C@H](NC(=O)C1CCC1)c1ccccc1 | 9 nM | – | Active | 42 nM | 6 | – | – | –
2 | Cc1nc2ccccc2n1[C@@H]1C[C@H]2CC[C@@H](C1)N2CC[C@H](NC(=O)C1CCC1)c1ccccc1 | – | 13 nM | Active | – | – | – | – | –
3 | Cc1nc2ccccc2n1[C@H]1C[C@H]2CC[C@@H](C1)N2CC[C@H](NC(=O)C1CCC1)c1ccccc1 | – | 3 nM | Active | – | 7.8 | 0.9 nM | 0.9 nM | 99%
4 | Cc1nc2ccccc2n1C1(C)CCN(CC[C@H](NC(=O)C2CCC2)c2ccccc2)CC1 | 1.2 nM | 140 nM | Active | – | – | – | – | –
5 | Cc1nc2ccccc2n1[C@@H]1C[C@H]2CSC[C@@H](C1)N2CC[C@H](NC(=O)C1CCC1)c1ccccc1 | 21.5 nM | – | Active | – | – | – | – | –
6 | Cc1nc2ccccc2n1[C@H]1C[C@H]2COC[C@@H](C1)N2CC[C@H](NC(=O)C1CCC1)c1ccccc1 | 39.7 nM | – | Active | – | – | – | – | –

Further lines, with some results ahead:

Row | IC50 [4] | IC90 [5] | Structure (SMILES) | inhibition (INH) [1] | Ki [2] | pKa [3] | IC50 [6] | IC50 [7] | inhibition at 1 µM (hERG (KCNH2))
7 | 8 nM | 53 nM | Cc1nc2ccccc2n1[C@@H]1C[C@@H](C)N(CC[C@H](NC(=O)C2CCC2)c2ccccc2)[C@@H](C)C1 | Active | – | – | – | – | –
8 | 20 nM | 73 nM | Cc1nc2ccccc2n1C1CCN(CC[C@H](NC(=O)C2CCC2)c2ccccc2)CC1 | – | – | – | – | – | –
9 | > 1000 nM | – | Cc1nc2ccccc2n1C1CN(CC[C@H](NC(=O)C2CCC2)c2ccccc2)C1 | Active | – | – | – | – | –
10 | 17 nM | > 1000 nM | Cc1nc2ccccc2n1C1[C@H]2CN(CC[C@H](NC(=O)C3CCC3)c3ccccc3)C[C@@H]12 (some centres undefined) | Active | – | – | – | – | –
